Laboratory results reported in ChEMBL document CHEMBL5050834, “Cyclic trex1 inhibitors” (2021).
pEC50, pIC50: −log10 of the molar value. Calls of active or inactive are those of the source. No cut-off for these calls is given here.

Columns and labels:
[1] = Inhibition of human TREX1 exonuclease activity using labeled DNA oligonucleotide as substrate incubated for 30 mins and measured after 45 mins by fluorescence assay
[2] = Inhibition of TREX1 in human THP1-Dual cells assessed as activation of cGAS-STING pathway measured by ISRE luciferase reporter gene assay; type: cell-based
MB49 = experiment: Antitumor activity against mouse MB49 cells xenografted in female C57BL/6 mouse assessed as reduction in tumor volume at 100 ug, IT(Intratumoral) followed by 10 Gy gamma irradiation; type: functional, cell-based; details: dose 100.0 µg

pIC50 [1]	pEC50 [2]	IC50 [1]	SMILES	Activity (MB49)
> 6.00	6.00	–	N[C@@H]1C[C@H]2C(=O)N([C@H](CCc3nnn[nH]3)C(=O)NCc3ccc(Cl)c(Cl)c3F)CCC(CCc3ccccc3)N2C1 (stereo not given in full)	–
> 6.00	6.00	–	N[C@@H]1C[C@H]2C(=O)N([C@H](CCC(=O)O)C(=O)NCc3ccc(Cl)c(Cl)c3F)CCC(CCc3ccccc3)N2C1 (stereo not given in full)	–
–	–	in the range around 10000 nM	N#CC[C@H](C(=O)N1CCOC[C@@H]1c1ccccc1)N1CCC(CCc2ccccc2)N2C[C@H](N)C[C@H]2C1=O (stereo not given in full)	–
> 6.00	–	–	N[C@@H]1C[C@H]2C(=O)N([C@H](CCC(=O)O)C(=O)NCc3ccc(Cl)c(C(F)(F)F)c3)CCC(CCc3ccccc3)N2C1 (stereo not given in full)	–
> 6.00	–	–	N[C@@H]1C[C@H]2C(=O)N([C@H](CCC(=O)O)C(=O)N3CCCC[C@H]3c3ccc(Cl)c(Cl)c3)CCC(CCc3ccccc3)N2C1 (stereo not given in full)	–
> 6.00	–	–	CCOC(=O)CC[C@H](C(=O)N1CCC[C@H]1c1ccc(Cl)c(Cl)c1)N1CCC(CCc2ccccc2)N2C[C@H](N)C[C@H]2C1=O (mixture of isomers)	–
> 6.00	–	–	N[C@@H]1C[C@H]2C(=O)N([C@H](CCC(=O)O)C(=O)NCc3ccc(Cl)c(Cl)c3)CCC(COc3ccc(F)cc3)N2C1 (stereo not given in full)	–
> 6.00	–	–	N[C@@H]1C[C@H]2C(=O)N(c3cccn(Cc4ccc(Cl)c(Cl)c4)c3=O)CCC(CCc3ccccc3)N2C1 (stereo not given in full)	–
> 6.00	–	–	N#CCC[C@H](C(=O)NCc1ccc(Cl)c(Cl)c1F)N1CCC(CCc2ccccc2)N2C[C@H](N)C[C@H]2C1=O (stereo not given in full)	–
> 6.00	–	–	N[C@@H]1C[C@H]2C(=O)N([C@@H]3CCCN(Cc4ccc(Cl)c(Cl)c4)C3=O)CCC(CCc3ccccc3)N2C1 (stereo not given in full)	–
> 6.00	–	–	COc1c(CNC(=O)[C@@H](CCC#N)N2CCC(CCc3ccccc3)N3C[C@H](N)C[C@H]3C2=O)ccc(Cl)c1Cl (stereo not given in full)	–
> 6.00	–	–	N=C(N)NCCC[C@H](C(=O)NCc1ccc(Cl)c(Cl)c1)N1CCC(CCc2ccccc2)N2C[C@H](N)C[C@H]2C1=O (stereo not given in full)	–
–	–	in the range around 1000 nM	CC(C)C[C@H](CNC(=O)c1ccc(Cl)c(Cl)c1)N1CCC(CCc2ccccc2)N2C[C@H](N)C[C@H]2C1=O (stereo not given in full)	–
–	–	in the range around 1000 nM	Cc1ccc(OCC2CCN([C@H](CCC(=O)O)C(=O)NCc3ccc(Cl)c(Cl)c3)C(=O)[C@@H]3C[C@@H](N)CN23)cc1 (stereo not given in full)	–
–	–	–	N[C@@H]1C[C@H]2C(=O)N([C@H](CCC(=O)O)C(=O)NCc3ccc(Cl)c(Cl)c3)CCC(CCc3ccccc3)N2C1 (stereo not given in full)	Active
> 6.00	–	–	N#CCC[C@H](C(=O)NCc1ccc(Cl)c(Cl)c1)N1CCC(COc2cccc(F)c2)N2C[C@H](N)C[C@H]2C1=O (stereo not given in full)	–
> 6.00	–	–	N#CC[C@H](C(=O)NCc1ccc(Cl)c(Cl)c1)N1CCC(CCc2ccccc2)N2C[C@H](N)C[C@H]2C1=O (stereo not given in full)	–
–	–	in the range around 1000 nM	CC(C)C[C@H](C(=O)N[C@@H](C)c1ccccc1)N1CCC(CCc2ccccc2)N2C[C@H](N)C[C@H]2C1=O (stereo not given in full)	–
> 6.00	–	–	N[C@@H]1C[C@H]2C(=O)N([C@H](CCC(=O)O)C(=O)NCc3ccc(Cl)cn3)CCC(CCc3ccccc3)N2C1 (stereo not given in full)	–

pIC50 [1]	pEC50 [2]	IC50 [1]	SMILES	Activity (MB49)
> 6.00	–	–	CN(Cc1ccc(Cl)c(Cl)c1)C(=O)[C@@H](CC#N)N1CCC(CCc2ccccc2)N2C[C@H](N)C[C@H]2C1=O (stereo not given in full)	–
> 6.00	–	–	CC(C)Oc1c(CNC(=O)[C@@H](CCC#N)N2CCC(CCc3ccccc3)N3C[C@H](N)C[C@H]3C2=O)ccc(Cl)c1Cl (stereo not given in full)	–
–	–	in the range around 10000 nM	N[C@@H]1C[C@H]2C(=O)N([C@H]3CCCN(C(=O)c4ccc(Cl)c(Cl)c4)C3)CCC(CCc3ccccc3)N2C1 (mixture of isomers)	–
> 6.00	–	–	COc1c(CNC(=O)[C@@H](CCC(=O)O)N2CCC(CCc3ccccc3)N3C[C@H](N)C[C@H]3C2=O)ccc(Cl)c1Cl (stereo not given in full)	–
> 6.00	–	–	N[C@@H]1C[C@H]2C(=O)N([C@H]3CCN(Cc4ccc(Cl)c(Cl)c4)C3=O)CCC(CCc3ccccc3)N2C1 (stereo not given in full)	–
> 6.00	–	–	CC(C)C[C@H](C(=O)NCc1ccc(Cl)c(C(F)(F)F)c1)N1CCC(CCc2ccccc2)N2C[C@H](N)C[C@H]2C1=O (stereo not given in full)	–
> 6.00	–	–	N[C@@H]1C[C@H]2C(=O)N([C@H](CCC(=O)NO)C(=O)NCc3ccc(Cl)c(Cl)c3)CCC(CCc3ccccc3)N2C1 (stereo not given in full)	–
> 6.00	–	–	N[C@@H]1C[C@H]2C(=O)N([C@@H]3CCCN(S(=O)(=O)c4ccc(Cl)c(Cl)c4)C3)CCC(CCc3ccccc3)N2C1 (stereo not given in full)	–
> 6.00	–	–	CC(C)C[C@H](C(=O)NCc1ccc(C(F)(F)F)c(F)c1)N1CCC(CCc2ccccc2)N2C[C@H](N)C[C@H]2C1=O (stereo not given in full)	–
> 6.00	–	–	N[C@@H]1C[C@H]2C(=O)N([C@H](CSc3ccccc3O)C(=O)NCc3ccc(Cl)c(Cl)c3)CCC(CCc3ccccc3)N2C1 (stereo not given in full)	–
> 6.00	–	–	N[C@@H]1C[C@H]2C(=O)N([C@H](CCNC(=O)C3CC3)C(=O)NCc3ccc(Cl)c(Cl)c3)CCC(CCc3ccccc3)N2C1 (stereo not given in full)	–
> 6.00	–	–	CC(C)OC(=O)CC[C@H](C(=O)NCc1ccc(Cl)c(Cl)c1)N1CCC(CCc2ccccc2)N2C[C@H](N)C[C@H]2C1=O (stereo not given in full)	–
> 6.00	–	–	COC(=O)CC[C@H](C(=O)NCc1ccc(Cl)cn1)N1CCC(CCc2ccccc2)N2C[C@H](N)C[C@H]2C1=O (stereo not given in full)	–
> 6.00	–	–	CC(C)C[C@H](C(=O)N(C)Cc1ccc(Cl)c(Cl)c1)N1CCC(CCc2ccccc2)N2C[C@H](N)C[C@H]2C1=O (stereo not given in full)	–
> 6.00	–	–	N[C@@H]1C[C@H]2C(=O)N([C@H](CCC(=O)O)C(=O)NCc3ccc(Cl)c(Cl)c3)CCC(COc3ccccc3F)N2C1 (stereo not given in full)	–
> 6.00	–	–	NC(=O)C[C@H](C(=O)NCc1ccc(Cl)c(Cl)c1)N1CCC(CCc2ccccc2)N2C[C@H](N)C[C@H]2C1=O (stereo not given in full)	–
> 6.00	–	–	CCOC(=O)CC[C@H](C(=O)NCc1ccc(Cl)c(Cl)c1F)N1CCC(CCc2ccccc2)N2C[C@H](N)C[C@H]2C1=O (stereo not given in full)	–
–	–	in the range around 1000 nM	N[C@@H]1C[C@H]2C(=O)N([C@H](CCC(=O)O)C(=O)NCc3ccc(Cl)c(Cl)c3)CCC(COc3cnccn3)N2C1 (stereo not given in full)	–
> 6.00	–	–	CC(C)C[C@H](C(=O)NCc1ccc(Cl)c(F)c1)N1CCC(CCc2ccccc2)N2C[C@H](N)C[C@H]2C1=O (stereo not given in full)	–
